Experimental data reported in ChEMBL document CHEMBL1201861, “Genomics of Drug Sensitity in Cancer screening data, Wellcome Trust Sanger Institute”.

system: D-502MG; assay: cells; format: functional, cell-based, Homo sapiens; settings: Homo sapiens, D-502MG
Description: SANGER: Inhibition of human D-502MG cell growth in a cell viability assay.

| SMILES | IC50 [µM] |
| --- | --- |
| COc1cc(N2CCN(C)CC2)ccc1Nc1ncc2c(n1)N(C)c1ccccc1C(=O)N2C | > 8 |

system: DEL; assay: cells; format: functional, cell-based, Homo sapiens; settings: Homo sapiens, DEL;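 also: growth inhibition of the human DEL cell line, read out with a cell viability assay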
Description: SANGER: Inhibition of human DEL cell growth in a cell viability assay.

| SMILES | IC50 [µM] |
| --- | --- |
| COc1cc(N2CCN(C)CC2)ccc1Nc1ncc2c(n1)N(C)c1ccccc1C(=O)N2C | > 8 |

system: DMS-114; assay: cells; format: functional, cell-based, Homo sapiens; settings: Homo sapiens, DMS-114

| SMILES | IC50 [µM] |
| --- | --- |
| COc1cc(N2CCN(C)CC2)ccc1Nc1ncc2c(n1)N(C)c1ccccc1C(=O)N2C | > 8 |

system: DOHH-2; assay: cells; format: functional, cell-based, Homo sapiens; settings: Homo sapiens, DOHH-2;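 also: growth inhibition of human DOHH-2 cells, read out with a cell viability assay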
Description: SANGER: Inhibition of human DOHH-2 cell growth in a cell viability assay.

| SMILES | IC50 [µM] |
| --- | --- |
| COc1cc(N2CCN(C)CC2)ccc1Nc1ncc2c(n1)N(C)c1ccccc1C(=O)N2C | 2.57 |

system: EM-2; assay: cells; format: functional, cell-based, Homo sapiens; settings: Homo sapiens, EM-2;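 also: growth inhibition of EM-2 cells, read out with a cell viability assay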
Description: SANGER: Inhibition of human EM-2 cell growth in a cell viability assay.

| SMILES | IC50 [µM] |
| --- | --- |
| COc1cc(N2CCN(C)CC2)ccc1Nc1ncc2c(n1)N(C)c1ccccc1C(=O)N2C | > 8 |

system: ES3; assay: cells; format: functional, cell-based, Homo sapiens; settings: Homo sapiens, ES3;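 also: growth inhibition of ES3 cells, read out with a cell viability assay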
Description: SANGER: Inhibition of human ES3 cell growth in a cell viability assay.

| SMILES | IC50 [µM] |
| --- | --- |
| COc1cc(N2CCN(C)CC2)ccc1Nc1ncc2c(n1)N(C)c1ccccc1C(=O)N2C | > 8 |

system: ETK-1; assay: cells; format: functional, cell-based, Homo sapiens; settings: Homo sapiens, ETK-1;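 also: growth inhibition of human ETK-1 cells, read out with a cell viability assay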
Description: SANGER: Inhibition of human ETK-1 cell growth in a cell viability assay.

| SMILES | IC50 [µM] |
| --- | --- |
| COc1cc(N2CCN(C)CC2)ccc1Nc1ncc2c(n1)N(C)c1ccccc1C(=O)N2C | > 8 |

system: EW-11; assay: cells; format: functional, cell-based, Homo sapiens; settings: Homo sapiens, EW-11;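 also: growth inhibition of human EW-11 cells, measured with a cell viability assay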
Description: SANGER: Inhibition of human EW-11 cell growth in a cell viability assay.

| SMILES | IC50 [µM] |
| --- | --- |
| COc1cc(N2CCN(C)CC2)ccc1Nc1ncc2c(n1)N(C)c1ccccc1C(=O)N2C | > 8 |

system: EW-13; assay: cells; format: functional, cell-based, Homo sapiens; settings: Homo sapiens, EW-13;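 also: growth inhibition of EW-13 cells, read out with a cell viability assay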
Description: SANGER: Inhibition of human EW-13 cell growth in a cell viability assay.

| SMILES | IC50 [µM] |
| --- | --- |
| COc1cc(N2CCN(C)CC2)ccc1Nc1ncc2c(n1)N(C)c1ccccc1C(=O)N2C | > 8 |

system: EW-3; assay: cells; format: functional, cell-based, Homo sapiens; settings: Homo sapiens, EW-3;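 also: cell viability assay read-out, IC50 reflects inhibition of growth of the EW-3 cells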
Description: SANGER: Inhibition of human EW-3 cell growth in a cell viability assay.

| SMILES | IC50 [µM] |
| --- | --- |
| COc1cc(N2CCN(C)CC2)ccc1Nc1ncc2c(n1)N(C)c1ccccc1C(=O)N2C | > 8 |

system: HCC 2998; assay: cells; format: functional, cell-based, Homo sapiens; settings: Homo sapiens, HCC 2998;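 also: growth inhibition of human HCC2998 cells, measured with a cell viability read-out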
Description: SANGER: Inhibition of human HCC2998 cell growth in a cell viability assay.

| SMILES | IC50 [µM] |
| --- | --- |
| COc1cc(N2CCN(C)CC2)ccc1Nc1ncc2c(n1)N(C)c1ccccc1C(=O)N2C | > 8 |

system: HCE-T; assay: cells; format: functional, cell-based, Homo sapiens; settings: Homo sapiens, HCE-T;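 also: cell viability assay read-out, reporting inhibition of HCE-T cell growth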
Description: SANGER: Inhibition of human HCE-T cell growth in a cell viability assay.

| SMILES | IC50 [µM] |
| --- | --- |
| COc1cc(N2CCN(C)CC2)ccc1Nc1ncc2c(n1)N(C)c1ccccc1C(=O)N2C | > 8 |

system: HH; assay: cells; format: functional, cell-based, Homo sapiens; settings: Homo sapiens, HH
Description: SANGER: Inhibition of human HH cell growth in a cell viability assay.

| SMILES | IC50 [µM] |
| --- | --- |
| COc1cc(N2CCN(C)CC2)ccc1Nc1ncc2c(n1)N(C)c1ccccc1C(=O)N2C | 4.58 |

system: IST-SL1; assay: cells; format: functional, cell-based, Homo sapiens; settings: Homo sapiens, IST-SL1;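 also: growth inhibition of human IST-SL1 cells, read out with a cell viability assay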
Description: SANGER: Inhibition of human IST-SL1 cell growth in a cell viability assay.

| SMILES | IC50 [µM] |
| --- | --- |
| COc1cc(N2CCN(C)CC2)ccc1Nc1ncc2c(n1)N(C)c1ccccc1C(=O)N2C | > 8 |

system: JVM-2; assay: cells; format: functional, cell-based, Homo sapiens; settings: Homo sapiens, JVM-2;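 also: growth inhibition of JVM-2 cells determined by a cell viability assay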
Description: SANGER: Inhibition of human JVM-2 cell growth in a cell viability assay.

| SMILES | IC50 [µM] |
| --- | --- |
| COc1cc(N2CCN(C)CC2)ccc1Nc1ncc2c(n1)N(C)c1ccccc1C(=O)N2C | > 8 |

system: JVM-3; assay: cells; format: functional, cell-based, Homo sapiens; settings: Homo sapiens, JVM-3;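 also: growth inhibition of human JVM-3 cells, read out with a cell viability assay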
Description: SANGER: Inhibition of human JVM-3 cell growth in a cell viability assay.

| SMILES | IC50 [µM] |
| --- | --- |
| COc1cc(N2CCN(C)CC2)ccc1Nc1ncc2c(n1)N(C)c1ccccc1C(=O)N2C | > 8 |

system: K5; assay: cells; format: functional, cell-based, Homo sapiens; settings: Homo sapiens, K5
Description: SANGER: Inhibition of human K5 cell growth in a cell viability assay.

| SMILES | IC50 [µM] |
| --- | --- |
| COc1cc(N2CCN(C)CC2)ccc1Nc1ncc2c(n1)N(C)c1ccccc1C(=O)N2C | > 8 |

system: KALS-1; assay: cells; format: functional, cell-based, Homo sapiens; settings: Homo sapiens, KALS-1;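 also: growth inhibition of KALS-1 cells, determined with a cell viability assay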
Description: SANGER: Inhibition of human KALS-1 cell growth in a cell viability assay.

| SMILES | IC50 [µM] |
| --- | --- |
| COc1cc(N2CCN(C)CC2)ccc1Nc1ncc2c(n1)N(C)c1ccccc1C(=O)N2C | 7.78 |

system: KARPAS-45; assay: cells; format: functional, cell-based, Homo sapiens; settings: Homo sapiens, KARPAS-45;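 also: inhibition of cell line growth, read out through a viability assay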
Description: SANGER: Inhibition of human KARPAS-45 cell growth in a cell viability assay.

| SMILES | IC50 [µM] |
| --- | --- |
| COc1cc(N2CCN(C)CC2)ccc1Nc1ncc2c(n1)N(C)c1ccccc1C(=O)N2C | 3.97 |

system: KGN; assay: cells; format: functional, cell-based, Homo sapiens; settings: Homo sapiens, KGN;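 also: growth inhibition of KGN cells, read out with a cell viability assay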
Description: SANGER: Inhibition of human KGN cell growth in a cell viability assay.

| SMILES | IC50 [µM] |
| --- | --- |
| COc1cc(N2CCN(C)CC2)ccc1Nc1ncc2c(n1)N(C)c1ccccc1C(=O)N2C | 2.79 |

system: KNS-42; assay: cells; format: functional, cell-based, Homo sapiens; settings: Homo sapiens, KNS-42;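 also: growth inhibition of KNS-42 cells, read out with a cell viability assay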
Description: SANGER: Inhibition of human KNS-42 cell growth in a cell viability assay.

| SMILES | IC50 [µM] |
| --- | --- |
| COc1cc(N2CCN(C)CC2)ccc1Nc1ncc2c(n1)N(C)c1ccccc1C(=O)N2C | > 8 |

system: LAMA-84; assay: cells; format: functional, cell-based, Homo sapiens; settings: Homo sapiens, LAMA-84;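 also: growth inhibition of LAMA-84 cells, read out with a cell viability assay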
Description: SANGER: Inhibition of human LAMA-84 cell growth in a cell viability assay.

| SMILES | IC50 [µM] |
| --- | --- |
| COc1cc(N2CCN(C)CC2)ccc1Nc1ncc2c(n1)N(C)c1ccccc1C(=O)N2C | > 8 |

system: LB2518-MEL; assay: cells; format: functional, cell-based, Homo sapiens; settings: Homo sapiens, LB2518-MEL;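 also: growth inhibition of human LB2518-MEL cells, measured with a cell viability assay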
Description: SANGER: Inhibition of human LB2518-MEL cell growth in a cell viability assay.

| SMILES | IC50 [µM] |
| --- | --- |
| COc1cc(N2CCN(C)CC2)ccc1Nc1ncc2c(n1)N(C)c1ccccc1C(=O)N2C | > 8 |

system: LB771-HNC; assay: cells; format: functional, cell-based, Homo sapiens; settings: Homo sapiens, LB771-HNC;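 also: growth inhibition of LB771-HNC human cells, read out with a cell viability assay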
Description: SANGER: Inhibition of human LB771-HNC cell growth in a cell viability assay.

| SMILES | IC50 [µM] |
| --- | --- |
| COc1cc(N2CCN(C)CC2)ccc1Nc1ncc2c(n1)N(C)c1ccccc1C(=O)N2C | > 8 |

system: LB831-BLC; assay: cells; format: functional, cell-based, Homo sapiens; settings: Homo sapiens, LB831-BLC;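 also: growth inhibition of LB831-BLC cells, read out with a cell viability assay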
Description: SANGER: Inhibition of human LB831-BLC cell growth in a cell viability assay.

| SMILES | IC50 [µM] |
| --- | --- |
| COc1cc(N2CCN(C)CC2)ccc1Nc1ncc2c(n1)N(C)c1ccccc1C(=O)N2C | > 8 |

system: LS-411N; assay: cells; format: functional, cell-based, Homo sapiens; settings: Homo sapiens, LS-411N

| SMILES | IC50 [µM] |
| --- | --- |
| COc1cc(N2CCN(C)CC2)ccc1Nc1ncc2c(n1)N(C)c1ccccc1C(=O)N2C | 7.05 |

system: LS-513; assay: cells; format: functional, cell-based, Homo sapiens; settings: Homo sapiens, LS-513
Description: SANGER: Inhibition of human LS-513 cell growth in a cell viability assay.

| SMILES | IC50 [µM] |
| --- | --- |
| COc1cc(N2CCN(C)CC2)ccc1Nc1ncc2c(n1)N(C)c1ccccc1C(=O)N2C | 5.86 |

system: MFM-223; assay: cells; format: functional, cell-based, Homo sapiens; settings: Homo sapiens, MFM-223
Description: SANGER: Inhibition of human MFM-223 cell growth in a cell viability assay.

| SMILES | IC50 [µM] |
| --- | --- |
| COc1cc(N2CCN(C)CC2)ccc1Nc1ncc2c(n1)N(C)c1ccccc1C(=O)N2C | > 8 |

system: MN-60; assay: cells; format: functional, cell-based, Homo sapiens; settings: Homo sapiens, MN-60;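 also: growth inhibition of the MN-60 cell line, determined with a cell viability assay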
Description: SANGER: Inhibition of human MN-60 cell growth in a cell viability assay.

| SMILES | IC50 [µM] |
| --- | --- |
| COc1cc(N2CCN(C)CC2)ccc1Nc1ncc2c(n1)N(C)c1ccccc1C(=O)N2C | > 8 |

system: MS-1; assay: cells; format: functional, cell-based, Homo sapiens; settings: Homo sapiens, MS-1
Description: SANGER: Inhibition of human MS-1 cell growth in a cell viability assay.

| SMILES | IC50 [µM] |
| --- | --- |
| COc1cc(N2CCN(C)CC2)ccc1Nc1ncc2c(n1)N(C)c1ccccc1C(=O)N2C | 4.67 |

system: MV4-11; assay: cells; format: functional, cell-based, Homo sapiens, MV-4-11; settings: Homo sapiens, MV4-11;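 also: cell viability readout measuring growth inhibition of human MV-4-11 cells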
Description: SANGER: Inhibition of human MV-4-11 cell growth in a cell viability assay.

| SMILES | IC50 [µM] |
| --- | --- |
| COc1cc(N2CCN(C)CC2)ccc1Nc1ncc2c(n1)N(C)c1ccccc1C(=O)N2C | 1.61 |

system: NB17; assay: cells; format: functional, cell-based, Homo sapiens; settings: Homo sapiens, NB17;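 also: growth inhibition of NB17 cells, read out with a cell viability assay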
Description: SANGER: Inhibition of human NB17 cell growth in a cell viability assay.

| SMILES | IC50 [µM] |
| --- | --- |
| COc1cc(N2CCN(C)CC2)ccc1Nc1ncc2c(n1)N(C)c1ccccc1C(=O)N2C | > 8 |

system: NCI-H1355; assay: cells; format: functional, cell-based, Homo sapiens; settings: Homo sapiens, NCI-H1355;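 also: growth inhibition of human NCI-H1355 cells, read out by a cell viability assay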
Description: SANGER: Inhibition of human NCI-H1355 cell growth in a cell viability assay.

| SMILES | IC50 [µM] |
| --- | --- |
| COc1cc(N2CCN(C)CC2)ccc1Nc1ncc2c(n1)N(C)c1ccccc1C(=O)N2C | > 8 |

system: NCI-H526; assay: cells; format: functional, cell-based, Homo sapiens; settings: Homo sapiens, NCI-H526;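 also: growth inhibition of the human NCI-H526 cell line, measured by a cell viability assay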
Description: SANGER: Inhibition of human NCI-H526 cell growth in a cell viability assay.

| SMILES | IC50 [µM] |
| --- | --- |
| COc1cc(N2CCN(C)CC2)ccc1Nc1ncc2c(n1)N(C)c1ccccc1C(=O)N2C | > 8 |

system: NMC-G1; assay: cells; format: functional, cell-based, Homo sapiens; settings: Homo sapiens, NMC-G1;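 also: growth inhibition of the NMC-G1 cell line, measured with a cell viability read-out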
Description: SANGER: Inhibition of human NMC-G1 cell growth in a cell viability assay.

| SMILES | IC50 [µM] |
| --- | --- |
| COc1cc(N2CCN(C)CC2)ccc1Nc1ncc2c(n1)N(C)c1ccccc1C(=O)N2C | > 8 |

system: OMC-1; assay: cells; format: functional, cell-based, Homo sapiens; settings: Homo sapiens, OMC-1;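 also: growth inhibition of the OMC-1 cell line, measured by a cell viability assay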
Description: SANGER: Inhibition of human OMC-1 cell growth in a cell viability assay.

| SMILES | IC50 [µM] |
| --- | --- |
| COc1cc(N2CCN(C)CC2)ccc1Nc1ncc2c(n1)N(C)c1ccccc1C(=O)N2C | > 8 |

system: P30-OHK; assay: cells; format: functional, cell-based, Homo sapiens; settings: Homo sapiens, P30-OHK;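 also: growth inhibition of the P30-OHK cell line, read out with a cell viability assay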
Description: SANGER: Inhibition of human P30-OHK cell growth in a cell viability assay.

| SMILES | IC50 [µM] |
| --- | --- |
| COc1cc(N2CCN(C)CC2)ccc1Nc1ncc2c(n1)N(C)c1ccccc1C(=O)N2C | > 8 |

system: RH-1; assay: cells; format: functional, cell-based, Homo sapiens; settings: Homo sapiens, RH-1;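 also: growth inhibition of human RH-1 cells, read out with a cell viability assay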
Description: SANGER: Inhibition of human RH-1 cell growth in a cell viability assay.

| SMILES | IC50 [µM] |
| --- | --- |
| COc1cc(N2CCN(C)CC2)ccc1Nc1ncc2c(n1)N(C)c1ccccc1C(=O)N2C | > 8 |

system: RPMI-8226; assay: cells; format: functional, cell-based, Homo sapiens; settings: Homo sapiens, RPMI-8226
Description: SANGER: Inhibition of human RPMI-8226 cell growth in a cell viability assay.

| SMILES | IC50 [µM] |
| --- | --- |
| COc1cc(N2CCN(C)CC2)ccc1Nc1ncc2c(n1)N(C)c1ccccc1C(=O)N2C | > 8 |

system: SH-4; assay: cells; format: functional, cell-based, Homo sapiens; settings: Homo sapiens, SH-4;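 also: growth inhibition of SH-4 cells, read out with a cell viability assay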
Description: SANGER: Inhibition of human SH-4 cell growth in a cell viability assay.

| SMILES | IC50 [µM] |
| --- | --- |
| COc1cc(N2CCN(C)CC2)ccc1Nc1ncc2c(n1)N(C)c1ccccc1C(=O)N2C | 1.99 |

system: SK-N-DZ; assay: cells; format: functional, cell-based, Homo sapiens; settings: Homo sapiens, SK-N-DZ;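 also: growth inhibition of the cancer cell line, read out through a viability assay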
Description: SANGER: Inhibition of human SK-N-DZ cell growth in a cell viability assay.

| SMILES | IC50 [µM] |
| --- | --- |
| COc1cc(N2CCN(C)CC2)ccc1Nc1ncc2c(n1)N(C)c1ccccc1C(=O)N2C | > 8 |

system: SK-NEP-1; assay: cells; format: functional, cell-based, Homo sapiens; settings: Homo sapiens, SK-NEP-1;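 also: growth inhibition of human SK-NEP-1 cells, read out by a cell viability assay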
Description: SANGER: Inhibition of human SK-NEP-1 cell growth in a cell viability assay.

| SMILES | IC50 [µM] |
| --- | --- |
| COc1cc(N2CCN(C)CC2)ccc1Nc1ncc2c(n1)N(C)c1ccccc1C(=O)N2C | > 8 |

system: ALL-PO; assay: cells; format: functional, cell-based, Homo sapiens; settings: Homo sapiens, ALL-PO;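 also: growth inhibition of ALL-PO cells, read out by a cell viability assay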
Description: SANGER: Inhibition of human ALL-PO cell growth in a cell viability assay.

| SMILES | IC50 [µM] |
| --- | --- |
| COc1cc(N2CCN(C)CC2)ccc1Nc1ncc2c(n1)N(C)c1ccccc1C(=O)N2C | 5.74 |

system: ATN-1; assay: cells; format: functional, cell-based, Homo sapiens; settings: Homo sapiens, ATN-1;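 also: growth inhibition of human ATN-1 cells, read out with a cell viability assay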
Description: SANGER: Inhibition of human ATN-1 cell growth in a cell viability assay.

| SMILES | IC50 [µM] |
| --- | --- |
| COc1cc(N2CCN(C)CC2)ccc1Nc1ncc2c(n1)N(C)c1ccccc1C(=O)N2C | > 8 |

system: BV-173; assay: cells; format: functional, cell-based, Homo sapiens; settings: Homo sapiens, BV-173
Description: SANGER: Inhibition of human BV-173 cell growth in a cell viability assay.

| SMILES | IC50 [µM] |
| --- | --- |
| COc1cc(N2CCN(C)CC2)ccc1Nc1ncc2c(n1)N(C)c1ccccc1C(=O)N2C | 7.43 |

system: C2BBe1; assay: cells; format: functional, cell-based, Homo sapiens; settings: Homo sapiens, C2BBe1;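 also: growth inhibition of C2BBe1 cells, read out through a viability assay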
Description: SANGER: Inhibition of human C2BBe1 cell growth in a cell viability assay.

| SMILES | IC50 [µM] |
| --- | --- |
| COc1cc(N2CCN(C)CC2)ccc1Nc1ncc2c(n1)N(C)c1ccccc1C(=O)N2C | > 8 |

system: CAS-1; assay: cells; format: functional, cell-based, Homo sapiens; settings: Homo sapiens, CAS-1;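 also: growth inhibition of CAS-1 cells, measured with a cell viability assay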
Description: SANGER: Inhibition of human CAS-1 cell growth in a cell viability assay.

| SMILES | IC50 [µM] |
| --- | --- |
| COc1cc(N2CCN(C)CC2)ccc1Nc1ncc2c(n1)N(C)c1ccccc1C(=O)N2C | > 8 |
